In brackets after ≈: the same amount, converted by molar mass. Entries after “also recorded” stand apart in the source; their conditions may differ. Blank lines part the entries; values can stand above or below the molecule they belong to.
Experiments:
Type in all cases: cell-based
[1] = test system: DNA of tumor sarcoma 180 (S-180); assay: Influence on methylation of DNA of tumor sarcoma 180 in vitro (5-MC content); conditions: 3 × 10^−6 M compound, 24 h at 37 °C; for inhibition at 3 µM: reduction of 5-MC content vs S-180 control, read-out: Inhibition of the Level of DNA Methylation; for Content of Bases in DNA, 5-MC ± ζ: tumor homogenate, S-180 control 0.64 ± 0.02, seven determinations; for Effect on tumor DNA methylation (in words): S-180
Procedure: It is known that DNA methylation in cancer plays a variety of roles, helping to change the healthy regulation of gene expression to a disease pattern. DNA hypermethylation in neoplasia is a specific epigenetic sign that can guide the diagnosis and treatment of this disease. We studied the effect of synthesized substances on tumor DNA in vitro. After the incubation of tumor cells with the studied compounds, the isolated DNA was hydrolyzed to nitrogen bases. In the studied DNA, the nucleotide composition (guanine (G), cytosine (C), 5-methylcitosine (5-MC), adenine (A), thymine (T)) complied with the rules of Chargaff. Isolated DNA belonged to the AT type, and the amount of basic bases (G + C + 5-MC) within them was 42.24–44.64 mol %, which is typical for eukaryotic DNA. Almost the same content of basic bases (G, C, A, and T) was observed, while a clear difference between DNA samples was found only in relation to the content of 5-MC, which indicated the demethylating ability of the compounds.
The influence of synthesized compounds on the methylation of DNA of tumor sarcoma 180 (S-180) was studied in vitro. Transplanted S-180 was isolated from animals after slaughter by decapitation under ether narcosis. A 3 × 10^−6 M solution of compounds (solvent: carboxymethylcellulose) was added to the tumor homogenate (12.5 mL of a solution per 10 g of tumor), and the mixture was incubated for 24 h at 37 °C. After the incubation, tumor DNA was extracted using the phenol–chloroform method. Hydrolysis to the nitrogen bases was carried out in sealed glass ampoules in 85% formic acid at 176 °C for 1 h (0.1 mL of acid per 1 mg of DNA). The separation of nitrogen bases (guanine (G), cytosine (C), 5-methylcitosine (5-MC), adenine (A), and thymine (T)) was produced by thin-layer chromatography in the solvent n-butanol/water/ammonia. Spectrophotometry of the eluates of all bases was made against eluates from the respective control areas of the chromatograms. In our studies, the well-known antitumor drug doxorubicin (manufactured by EBEWE Pharma Ges.m.b.H. Nfg. KG, 4866 Unterach, Austria) was used as a standard preparation. The data were statistically processed using Student’s and Fischer’s tests (p < 0.05).

[2] = test system: HeLa cells; assay: Cell viability (MTT) assay, HeLa; conditions: Homo sapiens, 72 h, read-out: IC50, antiproliferative activity
Procedure: (§1) Vero and HeLa cells were seeded in a 96-well culture plate at a density of 20,000 cells/well. The plates were preincubated in a 5% CO2/95% air-humidified atmosphere at 37 °C for 24 h to allow for adaptation of the cells prior to the addition of the test compounds. All compounds were dissolved in dimethyl sulfoxide (DMSO) prior to dilution (1 mg/mL stock solution). The 50% inhibitory concentration (IC50) was determined over a range of concentrations (0.5 μg/mL to 10 μg/mL). All cells were incubated for 72 h, and then cell viability was estimated using an MTT (3-(4,5-dimethylthiazol-2-yl)-2,5-diphenyltetrazolium bromide) assay, as previously described. Colorimetric measurements were performed on a microplate reader at 570 nm (Tecan Spectra II, Switzerland). The percentage of viable cells was calculated for each concentration as ((ODT/ODC) × 100), where ODT and ODC corresponded to the absorbance of the treated and control cells, respectively. The IC50 was calculated by using linear regression analysis.

[3] = test system: Vero cells; assay: Cell viability (MTT) assay, Vero; conditions: Chlorocebus sabaeus, Vero (normal cells), 72 h, read-out: IC50, antiproliferative activity
Procedure: as §1

SMILES: c1coc(-c2nc3sc4c(N5CCCCC5)ncnc4c3c3c2CCCC3)c1 [Compound 5a, 5-(2-Furyl)-8-piperidin-1-yl-1,2,3,4-tetrahydropyrimido[4′,5′:4,5]thieno[2,3-c]isoquinoline]
- inhibition at 3 µM [1]: 40.6%
- Content of Bases in DNA, 5-MC ± ζ [1]: 0.38 ± 0.02 mol %

- IC50 [2]: 8.4 ± 0.2 µg/mL (≈ 20.8 µM)
SMILES: CC1CCN(c2ncnc3c2sc2nc(-c4ccco4)c4c(c23)CCCC4)CC1 [Compound 5b, 5-(2-Furyl)-8-(4-methylpiperidin-1-yl)-1,2,3,4-tetrahydropyrimido[4′,5′:4,5]thieno[2,3-c]isoquinoline]
- inhibition at 3 µM [1]: 60.9%
- Content of Bases in DNA, 5-MC ± ζ [1]: 0.25 ± 0.02 mol %
- IC50 [3]: 16.8 ± 0.6 µg/mL (≈ 41.5 µM)

SMILES: c1coc(-c2nc3sc4c(N5CCOCC5)ncnc4c3c3c2CCCC3)c1 [Compound 5c, 5-(2-Furyl)-8-morpholin-4-yl-1,2,3,4-tetrahydropyrimido[4′,5′:4,5]thieno[2,3-c]isoquinoline]
- inhibition at 3 µM [1]: 23%
- Content of Bases in DNA, 5-MC ± ζ [1]: 0.49 ± 0.02 mol %

SMILES: CC(C)CNc1ncnc2c1sc1nc(-c3ccco3)c3c(c12)CCCC3 [Compound 5d, 5-(2-Furyl)-N-isobutyl-1,2,3,4-tetrahydropyrimido[4′,5′:4,5]thieno[2,3-c]isoquinolin-8-amine]
- inhibition at 3 µM [1]: 34.4%
- Content of Bases in DNA, 5-MC ± ζ [1]: 0.42 ± 0.03 mol %

SMILES: CCN(CC)CCNc1ncnc2c1sc1nc(-c3ccco3)c3c(c12)CCCC3 [Compound 5e, N,N-Diethyl-N′-[5-(2-furyl)-1,2,3,4-tetrahydropyrimido[4′,5′:4,5]thieno[2,3-c]isoquinolin-8-yl]ethane-1,2-diamine]
- inhibition at 3 µM [1]: 28.1%
- Content of Bases in DNA, 5-MC ± ζ [1]: 0.46 ± 0.02 mol %

- IC50 [2]: 4.4 ± 0.3 µg/mL (≈ 10.8 µM)
SMILES: c1coc(-c2nc3sc4c(NCC5CCCO5)ncnc4c3c3c2CCCC3)c1 (stereo not shown) [Compound 5f, 5-(2-Furyl)-N-(tetrahydrofuran-2-ylmethyl)-1,2,3,4-tetrahydropyrimido[4′,5′:4,5]thieno[2,3-c]isoquinolin-8-amine]
- inhibition at 3 µM [1]: 89.1%
- Content of Bases in DNA, 5-MC ± ζ [1]: 0.07 ± 0.02 mol %
- IC50 [3]: 6.4 ± 0.4 µg/mL (≈ 15.7 µM)

SMILES: CC(C)c1nc2oc3c(NCCO)ncnc3c2c2c1COC(C)(C)C2 [Compound 7a]
- Content of Bases in DNA, 5-MC ± ζ [1]: 0.85 ± 0.03 mol %

- IC50 [2]: 5.4 ± 0.2 µg/mL (≈ 14.1 µM)
SMILES: CC(C)c1nc2oc3c(NCCN(C)C)ncnc3c2c2c1COC(C)(C)C2 [Compound 7b]
- inhibition at 3 µM [1]: 62.5%
- Content of Bases in DNA, 5-MC ± ζ [1]: 0.24 ± 0.01 mol %
- IC50 [3]: 13.7 ± 0.4 µg/mL (≈ 35.7 µM)

SMILES: CCN(CC)CCNc1ncnc2c1oc1nc(C(C)C)c3c(c12)CC(C)(C)OC3 [Compound 7c, N,N-Diethyl-N′-(5-isopropyl-2,2-dimethyl-1,4-dihydro-2H-pyrano[4″,3″:4′,5′]pyrido[3′,2′:4,5]furo[3,2-d]pyrimidin-8-yl)ethane-1,2-diamine]
- inhibition at 3 µM [1]: 42.2%
- Content of Bases in DNA, 5-MC ± ζ [1]: 0.37 ± 0.01 mol %

SMILES: CC(C)c1nc2oc3c(NCCN4CCOCC4)ncnc3c2c2c1COC(C)(C)C2 [Compound 7d]
- inhibition at 3 µM [1]: 48.4%
- Content of Bases in DNA, 5-MC ± ζ [1]: 0.33 ± 0.01 mol %

SMILES: COc1ccc(CCNc2ncnc3c2oc2nc(C(C)C)c4c(c23)CC(C)(C)OC4)cc1OC [Compound 7e, N-[2-(3,4-Dimethoxyphenyl)ethyl]-5-isopropyl-2,2-dimethyl-1,4-dihydro-2H-pyrano[4″,3″:4′,5′]pyrido[3′,2′:4,5]furo[3,2-d]pyrimidin-8-amine]
- inhibition at 3 µM [1]: 56.2%
- Content of Bases in DNA, 5-MC ± ζ [1]: 0.28 ± 0.01 mol %

SMILES: CC(C)c1nc2oc3c(NCC4CCCO4)ncnc3c2c2c1COC(C)(C)C2 (stereo not shown) [Compound 7f, 5-Isopropyl-2,2-dimethyl-N-(tetrahydrofuran-2-ylmethyl)-1,4-dihydro-2H-pyrano[4″,3″:4′,5′]pyrido[3′,2′:4,5]furo[3,2-d]pyrimidin-8-amine]
- inhibition at 3 µM [1]: 21.9%
- Content of Bases in DNA, 5-MC ± ζ [1]: 0.50 ± 0.02 mol %

SMILES: CC(C)c1nc2oc3c(NCc4ccco4)ncnc3c2c2c1COC(C)(C)C2 [Compound 7g, N-(2-Furylmethyl)-5-isopropyl-2,2-dimethyl-1,4-dihydro-2H-pyrano[4″,3″:4′,5′]pyrido[3′,2′:4,5]furo[3,2-d]pyrimidin-8-amine]
- inhibition at 3 µM [1]: 40.6%
- Content of Bases in DNA, 5-MC ± ζ [1]: 0.38 ± 0.02 mol %

SMILES: CC(C)c1nc2oc3c(NCc4cccnc4)ncnc3c2c2c1COC(C)(C)C2 [Compound 7h]
- inhibition at 3 µM [1]: 34.4%
- Content of Bases in DNA, 5-MC ± ζ [1]: 0.42 ± 0.02 mol %

SMILES: CC(C)c1nc2oc3c(NCCCN(C)C)ncnc3c2c2c1COC(C)(C)C2 [Compound 7i]
- Effect on tumor DNA methylation (in words) [1]: did not affect DNA methylation; also recorded: loss of activity

SMILES: CC(C)Cc1nc2oc3c(NCCO)ncnc3c2c2c1COC(C)(C)C2 [Compound 7j, 2-[(5-Isobutyl-2,2-dimethyl-1,4-dihydro-2H-pyrano[4″,3″:4′,5′]pyrido[3′,2′:4,5]furo[3,2-d]pyrimidin-8-yl)amino]ethanol]
- Effect on tumor DNA methylation (in words) [1]: did not affect DNA methylation; also recorded: no activity

SMILES: CC(C)Cc1nc2oc3c(NCCCO)ncnc3c2c2c1COC(C)(C)C2 [Compound 7k]
- inhibition at 3 µM [1]: 18.8%
- Content of Bases in DNA, 5-MC ± ζ [1]: 0.52 ± 0.01 mol %

SMILES: CCOC(=O)N1CCN(c2ncnc3c2sc2nc(C(C)C)c4c(c23)CC(C)(C)OC4)CC1 [Compound 7l, Ethyl 4-(5-isopropyl-2,2-dimethyl-1,4-dihydro-2H-pyrano[4″,3″:4′,5′]pyrido[3′,2′:4,5]thieno[3,2-d]pyrimidin-8-yl)piperazine-1-carboxylate]
- inhibition at 3 µM [1]: 29.7%
- Content of Bases in DNA, 5-MC ± ζ [1]: 0.45 ± 0.03 mol %

SMILES: CC(C)c1nc2sc3c(NCC4CCCO4)ncnc3c2c2c1COC(C)(C)C2 (stereo not shown) [Compound 7m, 5-Isopropyl-2,2-dimethyl-N-(tetrahydrofuran-2-ylmethyl)-1,4-dihydro-2H-pyrano[4″,3″:4′,5′]pyrido[3′,2′:4,5]thieno[3,2-d]pyrimidin-8-amine]
- inhibition at 3 µM [1]: 37.5%
- Content of Bases in DNA, 5-MC ± ζ [1]: 0.40 ± 0.02 mol %

SMILES: COc1cccc2c1C(=O)c1c(O)c3c(c(O)c1C2=O)C[C@@](O)(C(=O)CO)C[C@@H]3O[C@H]1C[C@H](N)[C@H](O)[C@H](C)O1 [Doxorubicin, doxorubicin, reference compound]
- inhibition at 3 µM [1]: 67.2%
- Content of Bases in DNA, 5-MC ± ζ [1]: 0.21 ± 0.01 mol %
